These results are taken from ChEMBL document CHEMBL1201862, “PubChem BioAssay data set” (2004).

Activity calls are given as the source filed them.

For test [1], the target named is Keap1/Nrf2 (Homo sapiens, UniProt Q14145). Kind of test: disruptors of Keap1 binding to Nrf2 peptide – biochemical, fluorescence polarization, cherry-picked samples, dose response (AID 588683).
For test [2], the target named is DNA dC->dU-editing enzyme APOBEC-3A (Homo sapiens, UniProt P31941). Nature of the test: Dose Response confirmation of small molecule APOBEC3A DNA Deaminase Inhibitors via a fluorescence-based single-stranded DNA deaminase assay. [Related pubchem assays (depositor defined):AID493011, AID493024]. In kind it is functional.
Test [3] has as its target DNA dC->dU-editing enzyme APOBEC-3G (Homo sapiens, UniProt Q9HC16). The format is functional.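 Also: Dose-response counterscreen measuring inhibition of APOBEC3G DNA deaminase activity, run while confirming APOBEC3A inhibitors.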
For test [4], the target named is T1, Hexokinase HKDC1 (Homo sapiens, UniProt Q2TB90).
T1 sequence (Q2TB90 whole entry): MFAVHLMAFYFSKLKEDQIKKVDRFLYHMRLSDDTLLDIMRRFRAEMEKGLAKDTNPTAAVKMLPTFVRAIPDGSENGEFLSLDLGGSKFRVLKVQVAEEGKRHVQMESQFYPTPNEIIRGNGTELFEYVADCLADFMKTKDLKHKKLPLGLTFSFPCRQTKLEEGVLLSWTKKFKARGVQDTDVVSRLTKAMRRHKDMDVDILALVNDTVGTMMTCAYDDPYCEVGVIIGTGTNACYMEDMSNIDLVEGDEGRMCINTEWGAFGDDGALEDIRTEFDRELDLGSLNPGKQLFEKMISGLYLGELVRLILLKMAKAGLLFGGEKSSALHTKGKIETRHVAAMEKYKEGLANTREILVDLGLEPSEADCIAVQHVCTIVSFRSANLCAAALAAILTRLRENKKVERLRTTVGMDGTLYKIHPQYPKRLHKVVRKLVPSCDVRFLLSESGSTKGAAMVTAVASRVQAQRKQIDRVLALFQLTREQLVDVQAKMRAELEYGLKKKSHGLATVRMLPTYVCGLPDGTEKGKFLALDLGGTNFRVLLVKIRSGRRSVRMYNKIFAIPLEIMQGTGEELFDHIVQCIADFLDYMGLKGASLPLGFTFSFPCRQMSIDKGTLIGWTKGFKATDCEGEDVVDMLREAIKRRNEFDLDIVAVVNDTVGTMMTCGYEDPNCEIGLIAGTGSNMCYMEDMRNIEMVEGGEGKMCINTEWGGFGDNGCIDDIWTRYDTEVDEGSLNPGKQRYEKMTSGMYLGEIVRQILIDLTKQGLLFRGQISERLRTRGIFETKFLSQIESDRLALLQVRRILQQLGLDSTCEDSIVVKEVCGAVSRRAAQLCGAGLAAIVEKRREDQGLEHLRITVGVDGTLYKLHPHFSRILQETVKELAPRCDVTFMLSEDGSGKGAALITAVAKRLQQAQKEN
Nature of the test: inhibition of HKDC1 glucose phosphorylation – biochemical, W721R variant, dose response (AID 504729). The format is functional.

Test [5] concerns the target T2, Protein RecA (Mycobacterium tuberculosis, UniProt P9WHJ3).
T2 sequence (P9WHJ3 whole entry): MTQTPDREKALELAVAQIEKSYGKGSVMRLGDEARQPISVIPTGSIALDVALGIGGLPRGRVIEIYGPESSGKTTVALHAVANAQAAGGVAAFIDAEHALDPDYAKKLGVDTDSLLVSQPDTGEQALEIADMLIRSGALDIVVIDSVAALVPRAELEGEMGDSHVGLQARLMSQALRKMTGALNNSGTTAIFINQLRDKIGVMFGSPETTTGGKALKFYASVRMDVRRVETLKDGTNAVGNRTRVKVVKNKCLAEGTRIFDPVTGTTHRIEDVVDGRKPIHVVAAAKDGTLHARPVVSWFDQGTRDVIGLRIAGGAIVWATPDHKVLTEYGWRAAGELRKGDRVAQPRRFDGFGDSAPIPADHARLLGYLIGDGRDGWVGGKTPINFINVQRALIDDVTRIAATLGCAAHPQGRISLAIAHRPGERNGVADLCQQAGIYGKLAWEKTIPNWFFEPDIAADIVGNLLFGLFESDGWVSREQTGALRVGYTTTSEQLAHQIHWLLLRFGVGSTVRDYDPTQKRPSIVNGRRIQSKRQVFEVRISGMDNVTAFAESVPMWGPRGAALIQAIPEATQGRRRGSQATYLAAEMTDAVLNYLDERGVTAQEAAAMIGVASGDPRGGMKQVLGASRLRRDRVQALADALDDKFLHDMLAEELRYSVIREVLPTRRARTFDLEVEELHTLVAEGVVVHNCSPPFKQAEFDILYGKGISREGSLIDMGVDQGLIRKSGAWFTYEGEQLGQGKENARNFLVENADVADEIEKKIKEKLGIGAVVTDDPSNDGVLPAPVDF
Kind of test: Fluorescence Cell-Free Homogeneous Dose Retest to Identify Inhibitors of RecA-Intein Splicing Activity. [Related pubchem assays (depositor defined):AID2097, AID2223, AID489010, AID492950]. In kind it is functional.

In test [6] the target is T3, Replicative DNA helicase DnaB (Mycobacterium tuberculosis, UniProt P9WMR3).
T3 sequence (P9WMR3 whole entry): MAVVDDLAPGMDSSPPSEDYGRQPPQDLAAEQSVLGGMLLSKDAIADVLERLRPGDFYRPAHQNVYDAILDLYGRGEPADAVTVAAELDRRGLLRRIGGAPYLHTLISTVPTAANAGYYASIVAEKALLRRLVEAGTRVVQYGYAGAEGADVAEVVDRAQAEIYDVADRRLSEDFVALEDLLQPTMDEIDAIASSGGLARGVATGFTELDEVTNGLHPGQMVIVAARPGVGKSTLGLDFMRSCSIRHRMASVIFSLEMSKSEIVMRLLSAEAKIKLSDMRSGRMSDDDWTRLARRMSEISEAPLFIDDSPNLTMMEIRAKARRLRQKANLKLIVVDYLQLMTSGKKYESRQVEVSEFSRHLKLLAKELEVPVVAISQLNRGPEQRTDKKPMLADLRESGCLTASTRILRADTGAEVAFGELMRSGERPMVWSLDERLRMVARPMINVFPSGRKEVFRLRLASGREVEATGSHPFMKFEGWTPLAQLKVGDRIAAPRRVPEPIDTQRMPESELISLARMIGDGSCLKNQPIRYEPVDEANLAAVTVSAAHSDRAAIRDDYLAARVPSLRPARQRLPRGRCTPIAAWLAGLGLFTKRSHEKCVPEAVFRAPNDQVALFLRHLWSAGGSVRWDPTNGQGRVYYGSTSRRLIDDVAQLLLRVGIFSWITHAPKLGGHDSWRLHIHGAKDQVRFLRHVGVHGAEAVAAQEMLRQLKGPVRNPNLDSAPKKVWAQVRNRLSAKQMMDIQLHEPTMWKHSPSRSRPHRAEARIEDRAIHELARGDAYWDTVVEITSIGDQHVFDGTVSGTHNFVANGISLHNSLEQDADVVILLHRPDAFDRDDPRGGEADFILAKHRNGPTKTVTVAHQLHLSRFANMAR
Kind of test: DnaB intein splicing inhibitors, dose response, biochemical, cell-free fluorescence (AID 449749). In kind it is functional.

Test [7] deals with Eukaryotic translation initiation factor 4E (Mus musculus, UniProt P63073). Kind of test: blockers of eIF4G binding by eIF4E – biochemical, TR-FRET, dose response (AID 855).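 Also: potency for disrupting eIF4E binding to eIF4GI seen as loss of FRET.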 The format is functional.
The target in test [8] is T4, Zinc finger protein mex-5 (Caenorhabditis elegans, UniProt Q9XUB2).
T4 sequence (Q9XUB2 whole entry): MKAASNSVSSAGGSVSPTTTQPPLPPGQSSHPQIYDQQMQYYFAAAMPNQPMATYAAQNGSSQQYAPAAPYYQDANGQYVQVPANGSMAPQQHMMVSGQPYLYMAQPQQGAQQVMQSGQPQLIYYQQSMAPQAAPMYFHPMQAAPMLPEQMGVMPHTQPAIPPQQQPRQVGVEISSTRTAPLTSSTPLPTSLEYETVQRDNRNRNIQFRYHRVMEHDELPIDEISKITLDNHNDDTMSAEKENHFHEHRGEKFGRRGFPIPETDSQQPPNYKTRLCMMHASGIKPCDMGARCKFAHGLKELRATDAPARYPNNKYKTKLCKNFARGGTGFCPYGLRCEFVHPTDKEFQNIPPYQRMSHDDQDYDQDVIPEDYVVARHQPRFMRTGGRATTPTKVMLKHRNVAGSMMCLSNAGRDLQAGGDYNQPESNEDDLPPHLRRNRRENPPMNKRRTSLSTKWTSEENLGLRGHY
Nature of the test: potency of MEX-5 RNA-binding blockers – biochemical, C. elegans, fluorescence polarization, dose response (AID 1960).

For test [9], the target named is T5, RNA-binding protein pos-1 (Caenorhabditis elegans, UniProt G5EF15).
T5 sequence (G5EF15 whole entry): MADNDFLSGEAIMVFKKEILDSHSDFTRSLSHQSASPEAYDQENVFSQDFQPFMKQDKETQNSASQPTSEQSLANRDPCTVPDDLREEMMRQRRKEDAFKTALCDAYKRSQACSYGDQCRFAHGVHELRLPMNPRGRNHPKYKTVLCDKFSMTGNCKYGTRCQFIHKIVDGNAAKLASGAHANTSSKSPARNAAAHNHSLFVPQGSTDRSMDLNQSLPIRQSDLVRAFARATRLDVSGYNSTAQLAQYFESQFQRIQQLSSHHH
Nature of the test: disruptors of C. elegans POS-1 RNA interaction – biochemical, fluorescence polarization, dose response (AID 1964).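 Also: purified POS-1 fused to maltose binding protein made in E. coli; potency of compounds blocking POS-1 binding to fluorescent RNA.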

Test [10] concerns the target Peroxisome proliferator-activated receptor gamma/Nuclear receptor coactivator 1 (Homo sapiens, UniProt P37231). Kind of test: TR-FRET dose response biochemical High Throughput Screening assay for agonists of the steroid receptor coactivator 1 (SRC-1) recruitment by the peroxisome proliferator-activated receptor gamma (PPAR gamma): non-selective agonists. [Related pubchem assays (depositor defined):AID1300, AID1808, AID504735, AID631]. In kind it is protein assay.

Test [11] addresses Peroxisome proliferator-activated receptor gamma/Nuclear receptor coactivator 2 (Homo sapiens, UniProt P37231). Kind of test: TR-FRET dose response biochemical High Throughput Screening assay for agonists of the steroid receptor coactivator 2 (SRC-2) recruitment by the peroxisome proliferator-activated receptor gamma (PPAR gamma): non-selective agonists. [Related pubchem assays: 1297, 1032 ]. The format is functional.

The nature of test [12]: HEK-293T cell viability reduction – luminescence, B-cell screen hits, cytotoxicity control for BCR NF-kB inhibitor project, dose response (AID 489021).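 Also: HEK-293T cells carrying an NF-kB luciferase reporter; cells exposed to compound for about 14 hours before viability readout.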 The format is functional, cell-based.
The target of test [13] is Peroxisome proliferator-activated receptor gamma/Nuclear receptor coactivator 3 (Homo sapiens, UniProt P37231). Nature of the test: TR-FRET dose response biochemical High Throughput Screening assay for agonists of the steroid receptor coactivator 3 (SRC-3) recruitment by the peroxisome proliferator-activated receptor gamma (PPAR gamma): non-selective agonists. [Related pubchem assays: 1301 (Confirmation screen.), 1048 (Primary screen.)]. The format is functional.

Test [14] in a line: cells.
The subject of test [15] is HEK293. Nature of the test: cells. Conditions: Homo sapiens.
The target of test [16] is Tumor necrosis factor (Homo sapiens, UniProt P01375). Kind of test: analog potency on TNFa NF-kB signaling – cell-based, revised, SAR follow-up (AID 2337). In kind it is functional.
In test [17] the target is T6, Carboxy-terminal domain RNA polymerase II polypeptide A small phosphatase 1 (Homo sapiens, UniProt Q9GZU7).
T6 sequence (Q9GZU7 whole entry): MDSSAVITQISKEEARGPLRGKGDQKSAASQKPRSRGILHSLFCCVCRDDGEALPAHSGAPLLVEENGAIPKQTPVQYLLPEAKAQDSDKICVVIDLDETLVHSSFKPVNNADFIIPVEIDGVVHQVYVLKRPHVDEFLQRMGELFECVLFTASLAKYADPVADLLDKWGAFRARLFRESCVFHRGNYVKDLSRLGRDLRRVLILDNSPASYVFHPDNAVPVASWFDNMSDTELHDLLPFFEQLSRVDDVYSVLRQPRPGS
Kind of test: CTDSP1 inhibitors, concentration-response, biochemical, absorbance readout, ultra-high-throughput screen actives (AID 540297). In kind it is functional.

Eukaryotic translation initiation factor 4E, sequence (P63073 whole entry): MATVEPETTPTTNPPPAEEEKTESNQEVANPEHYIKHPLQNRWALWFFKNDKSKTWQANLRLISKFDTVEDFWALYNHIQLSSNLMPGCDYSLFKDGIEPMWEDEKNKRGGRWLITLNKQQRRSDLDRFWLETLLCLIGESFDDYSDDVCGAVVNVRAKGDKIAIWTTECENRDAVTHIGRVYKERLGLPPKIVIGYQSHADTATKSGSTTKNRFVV
DNA dC->dU-editing enzyme APOBEC-3G, sequence (Q9HC16 whole entry): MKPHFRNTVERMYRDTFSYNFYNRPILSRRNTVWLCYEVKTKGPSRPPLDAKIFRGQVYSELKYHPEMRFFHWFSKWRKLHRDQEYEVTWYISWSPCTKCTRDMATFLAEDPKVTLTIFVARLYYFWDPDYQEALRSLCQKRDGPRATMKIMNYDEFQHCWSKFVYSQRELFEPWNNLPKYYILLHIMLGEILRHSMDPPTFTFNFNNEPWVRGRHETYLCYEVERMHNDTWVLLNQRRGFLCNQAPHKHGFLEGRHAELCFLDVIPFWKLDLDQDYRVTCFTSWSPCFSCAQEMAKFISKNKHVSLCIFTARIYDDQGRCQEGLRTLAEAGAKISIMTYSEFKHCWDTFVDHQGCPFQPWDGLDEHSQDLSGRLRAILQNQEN
Keap1/Nrf2, sequence (Q16236 whole entry): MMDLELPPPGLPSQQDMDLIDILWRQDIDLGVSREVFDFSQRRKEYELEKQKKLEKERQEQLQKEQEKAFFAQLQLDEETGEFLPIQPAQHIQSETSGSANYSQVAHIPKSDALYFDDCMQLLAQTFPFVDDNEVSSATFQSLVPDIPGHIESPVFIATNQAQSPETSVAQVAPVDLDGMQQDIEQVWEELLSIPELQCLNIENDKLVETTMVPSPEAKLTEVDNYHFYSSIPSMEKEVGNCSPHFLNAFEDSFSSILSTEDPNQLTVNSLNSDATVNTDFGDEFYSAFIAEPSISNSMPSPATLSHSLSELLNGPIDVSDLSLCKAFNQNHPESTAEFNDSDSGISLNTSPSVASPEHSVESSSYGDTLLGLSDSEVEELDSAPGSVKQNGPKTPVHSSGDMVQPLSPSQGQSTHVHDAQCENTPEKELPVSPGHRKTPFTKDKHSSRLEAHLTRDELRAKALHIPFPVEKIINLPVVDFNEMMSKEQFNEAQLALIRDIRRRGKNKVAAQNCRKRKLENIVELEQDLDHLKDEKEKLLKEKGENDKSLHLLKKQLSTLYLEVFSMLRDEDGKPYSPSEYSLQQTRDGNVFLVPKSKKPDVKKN
Keap1/Nrf2, sequence (Q14145 whole entry): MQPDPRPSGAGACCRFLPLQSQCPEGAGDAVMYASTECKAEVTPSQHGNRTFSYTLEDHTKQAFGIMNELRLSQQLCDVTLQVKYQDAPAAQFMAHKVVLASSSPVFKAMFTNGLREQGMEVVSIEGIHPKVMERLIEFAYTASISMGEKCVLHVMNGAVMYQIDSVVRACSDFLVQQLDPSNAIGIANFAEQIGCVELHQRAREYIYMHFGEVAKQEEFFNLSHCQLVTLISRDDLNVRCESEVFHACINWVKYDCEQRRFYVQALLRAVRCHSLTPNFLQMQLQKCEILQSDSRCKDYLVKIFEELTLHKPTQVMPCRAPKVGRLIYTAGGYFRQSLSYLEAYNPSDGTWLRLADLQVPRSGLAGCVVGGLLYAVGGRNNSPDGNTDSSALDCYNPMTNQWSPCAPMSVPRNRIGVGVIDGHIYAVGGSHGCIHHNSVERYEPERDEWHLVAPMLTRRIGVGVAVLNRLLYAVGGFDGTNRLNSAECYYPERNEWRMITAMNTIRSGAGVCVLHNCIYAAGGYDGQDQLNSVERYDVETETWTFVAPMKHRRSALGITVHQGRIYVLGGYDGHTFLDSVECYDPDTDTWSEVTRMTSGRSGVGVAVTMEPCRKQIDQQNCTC
DNA dC->dU-editing enzyme APOBEC-3A, sequence (P31941 whole entry): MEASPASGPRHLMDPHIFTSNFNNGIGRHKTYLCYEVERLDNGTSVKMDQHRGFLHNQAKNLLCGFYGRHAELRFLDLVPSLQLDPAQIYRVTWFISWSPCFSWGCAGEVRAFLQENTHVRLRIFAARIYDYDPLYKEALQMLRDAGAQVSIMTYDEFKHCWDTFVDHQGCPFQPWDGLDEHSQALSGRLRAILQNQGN
Tumor necrosis factor, sequence (P01375 whole entry, the tested form may be a part): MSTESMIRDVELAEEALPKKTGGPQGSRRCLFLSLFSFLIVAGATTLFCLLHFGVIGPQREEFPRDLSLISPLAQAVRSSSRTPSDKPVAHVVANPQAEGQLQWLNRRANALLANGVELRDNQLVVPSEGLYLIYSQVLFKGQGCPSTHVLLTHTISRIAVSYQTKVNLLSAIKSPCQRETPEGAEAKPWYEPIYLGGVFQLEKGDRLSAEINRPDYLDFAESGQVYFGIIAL
Peroxisome proliferator-activated receptor gamma/Nuclear receptor coactivator 1, sequence (P37231 whole entry): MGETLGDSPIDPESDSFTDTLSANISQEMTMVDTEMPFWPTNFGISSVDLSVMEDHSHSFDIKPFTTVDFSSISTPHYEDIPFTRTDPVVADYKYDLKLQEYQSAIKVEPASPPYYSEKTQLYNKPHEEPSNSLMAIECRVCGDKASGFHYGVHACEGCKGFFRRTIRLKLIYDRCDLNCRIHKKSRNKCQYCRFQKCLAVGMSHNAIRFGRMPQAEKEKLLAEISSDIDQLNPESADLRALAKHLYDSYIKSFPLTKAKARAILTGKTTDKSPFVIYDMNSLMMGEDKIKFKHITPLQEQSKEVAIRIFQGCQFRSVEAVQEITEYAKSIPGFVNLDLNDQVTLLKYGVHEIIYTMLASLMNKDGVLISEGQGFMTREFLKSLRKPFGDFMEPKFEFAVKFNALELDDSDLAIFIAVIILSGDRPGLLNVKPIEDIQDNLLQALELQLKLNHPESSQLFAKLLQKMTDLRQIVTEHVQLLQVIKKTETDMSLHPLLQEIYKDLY
Peroxisome proliferator-activated receptor gamma/Nuclear receptor coactivator 1, sequence (Q15788 whole entry, further chain): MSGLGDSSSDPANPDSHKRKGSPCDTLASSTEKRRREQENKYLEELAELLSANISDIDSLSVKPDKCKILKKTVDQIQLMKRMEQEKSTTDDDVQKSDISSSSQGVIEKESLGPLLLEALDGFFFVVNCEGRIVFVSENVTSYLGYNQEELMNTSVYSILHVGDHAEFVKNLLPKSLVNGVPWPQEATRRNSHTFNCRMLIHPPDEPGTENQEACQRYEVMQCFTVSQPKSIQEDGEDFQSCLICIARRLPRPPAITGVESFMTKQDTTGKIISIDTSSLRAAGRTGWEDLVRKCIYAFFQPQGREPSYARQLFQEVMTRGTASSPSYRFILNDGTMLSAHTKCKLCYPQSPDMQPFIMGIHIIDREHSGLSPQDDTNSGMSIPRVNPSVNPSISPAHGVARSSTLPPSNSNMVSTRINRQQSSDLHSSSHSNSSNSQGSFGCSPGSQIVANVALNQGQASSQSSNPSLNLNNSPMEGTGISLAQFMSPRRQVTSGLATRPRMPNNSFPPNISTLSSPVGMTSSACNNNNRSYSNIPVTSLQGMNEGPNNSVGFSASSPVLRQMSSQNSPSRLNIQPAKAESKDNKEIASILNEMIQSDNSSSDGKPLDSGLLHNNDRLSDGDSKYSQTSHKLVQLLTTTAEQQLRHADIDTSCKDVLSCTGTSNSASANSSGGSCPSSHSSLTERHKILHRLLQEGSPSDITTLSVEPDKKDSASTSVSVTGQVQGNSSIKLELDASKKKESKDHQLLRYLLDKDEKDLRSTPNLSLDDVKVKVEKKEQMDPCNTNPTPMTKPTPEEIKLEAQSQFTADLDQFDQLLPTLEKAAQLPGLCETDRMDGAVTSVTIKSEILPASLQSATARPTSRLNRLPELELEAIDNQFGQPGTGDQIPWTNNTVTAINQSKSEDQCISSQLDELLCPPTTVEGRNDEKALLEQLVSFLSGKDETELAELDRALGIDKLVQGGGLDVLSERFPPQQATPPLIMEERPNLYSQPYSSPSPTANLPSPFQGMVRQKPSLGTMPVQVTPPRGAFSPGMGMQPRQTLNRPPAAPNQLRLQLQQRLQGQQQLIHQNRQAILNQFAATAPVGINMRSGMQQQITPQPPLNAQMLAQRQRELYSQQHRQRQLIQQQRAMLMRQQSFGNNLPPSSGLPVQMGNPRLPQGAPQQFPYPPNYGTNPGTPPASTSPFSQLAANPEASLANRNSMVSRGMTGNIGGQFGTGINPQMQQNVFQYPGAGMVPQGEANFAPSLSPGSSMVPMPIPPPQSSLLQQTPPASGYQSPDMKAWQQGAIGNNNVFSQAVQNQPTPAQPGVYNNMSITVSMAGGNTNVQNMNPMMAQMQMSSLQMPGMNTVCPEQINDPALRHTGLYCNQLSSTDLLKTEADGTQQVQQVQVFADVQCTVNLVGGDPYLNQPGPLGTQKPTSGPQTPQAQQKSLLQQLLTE

In the case of `COc1ccc(Br)cc1CNCC1CCCO1` (stereo unspecified), the AC50 in test [1] is > 52 µM (inactive).

Regarding `N#C/C(=C\c1c[nH]c2ccccc12)C(=O)NCC1CCCO1` (stereo unspecified), the IC50 in test [2] is 5.69 µM (active); in test [3], 5.05 µM (active).

`CCOc1ccc(N(CC(=O)Nc2ccccc2)S(C)(=O)=O)cc1`: the concentration for half-maximal inhibition (IC50) in test [2] is 3.89 µM (active); in test [3] it was 4.76 µM (active).

Take `C[n+]1cc(-c2ccccc2)n2c1CCCCC2`: the 50% inhibitory concentration (IC50) in [2] was 1.66 µM (active); in [3], 2.3 µM (active).

Regarding `CC(C)(C)c1c(Cl)c(O)c(-c2ccccc2)c(=O)n1-c1ccccc1`, the values for the IC50 in test [4] and in test [7] were 8.83 µM (active) and 14.1 µM (active), respectively. Also, the EC50 in test [5] is 27.2 µM (active). In addition, the half-maximal activity concentration (AC50) in [6] was 20.1 µM (active).

`CC1=C[C@@H]2c3cccc4[nH]cc(c34)C[C@H]2N(C)C1` [AGROCLAVINE]: the EC50 in test [8] was 8.67 µM (inconclusive); in test [9], 11.2 µM (active). Moreover, in test [1], the AC50 is 38.4 µM (active).

Regarding `CCn1c(=O)cc(SCC(=O)N2CCN(C(=O)c3ccco3)CC2)c2ccccc21`, the EC50 in test [10] was > 79.4 µM (inactive); in [11], > 79.4 µM (not active); in test [13], > 79.4 µM (not active). For the same molecule, the IC50 in test [12] was > 80 µM (inactive).

Regarding `c1csc(-c2nn3c(Cn4cnc5ccccc54)nnc3s2)c1`, the IC50 is > 64 µM (inactive) in [7] and < 0.1 µM (active) in [14].

For the molecule `COc1ccc2nc3ccccc3nc2c1NC(=O)c1ccccc1Cl`, the concentration for a half-maximal effect (EC50) in test [8] and in [9] was > 300 µM (not active) in each case. The AC50 in test [1] is 29.2 µM (active).

Turning to `CCOC(=O)C1CCN(C(=O)Cc2cccc3ccccc23)CC1`, the half-inhibitory concentration (IC50) was 5.89 µM (active) in [2] and 5.83 µM (active) in test [3].

As for `CSc1ccc(NC(=O)c2ccc(CN3CCCCC3)cc2)cc1`, the IC50 in test [15] is > 20 µM (inactive); in test [16], 19.6 µM (active).

On to `O=C(Nc1ccccc1F)c1ccc(CSc2ncccn2)cc1`, for which the 50% inhibitory concentration (IC50) was 4.88 µM (active) in [2] and 9.71 µM (active) in test [3].

With `COc1ccc(OC)c(NC(=O)COC(=O)c2cc3c(s2)CCC3)c1`, the IC50 in test [17] was 2.39 µM (active); in test [7], 50 µM (inactive).
